Reference: ChEMBL document CHEMBL1201862, “PubChem BioAssay data set” (2004)
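Briefly, cells in 96-well plates were exposed to five compound concentrations for 48 h, and endpoints were estimated by linear interpolation. Abbreviation: GI50, concentration required for 50% inhibition of growth.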 Calls of active or inactive are those of the source. Cut-off read from the data, not from the text of the source: active = GI50 up to about 1.1 µM and inactive = higher.

Legend:
Experiment in all cases: DTP human tumour cell line panel, 48 h
[1] = tested on: NCI/ADR-RES
[2] = tested on: MDA-MB-435
[3] = tested on: HCT-15
[4] = tested on: OVCAR-8
[5] = tested on: LOX IMVI
[6] = tested on: KM12
[7] = tested on: SK-MEL-28
[8] = tested on: PC-3
[9] = tested on: NCI-H460
[10] = tested on: MCF7
[11] = tested on: UACC-62
[12] = tested on: A498
[13] = tested on: SK-OV-3
[14] = tested on: DU-145
[15] = tested on: HT-29
[16] = tested on: SF-295
[17] = tested on: NCI-H23
[18] = tested on: OVCAR-3
[19] = tested on: SK-MEL-5
[20] = tested on: A549
[21] = tested on: HCT-116
[22] = tested on: T47D
[23] = tested on: TK-10
[24] = tested on: RPMI-8226
[25] = tested on: Malme-3M
[26] = tested on: BT-549
[27] = tested on: ACHN
[28] = tested on: SF-539
[29] = tested on: RXF 393
[30] = tested on: U-251
[31] = tested on: K562
[32] = tested on: EKVX
[33] = tested on: OVCAR-4
[34] = tested on: M14
[35] = tested on: SR
[36] = tested on: UACC-257
[37] = tested on: HOP-62
[38] = tested on: SF-268
[39] = tested on: MDA-MB-231
[40] = tested on: OVCAR-5
[41] = tested on: 786-0
[42] = tested on: HCC 2998
[43] = tested on: SNB-19
[44] = tested on: NCI-H226
[45] = tested on: UO-31
[46] = tested on: SK-MEL-2
[47] = tested on: SW-620
[48] = tested on: COLO 205
[49] = tested on: CAKI-1
[50] = tested on: IGROV-1
[51] = tested on: HOP-92
[52] = tested on: HL-60
[53] = tested on: CCRF-CEM
[54] = tested on: SNB-75
[55] = tested on: MOLT-4
[56] = tested on: MDA-N
[57] = tested on: SN12C
[58] = tested on: Hs-578T

SMILES: CC(C)(C)/N=C1\C(=O)C2(C)CCC1C2(C)C (stereo not given)
- GI50 [1]: > 100 µM (inactive)
- GI50 [2]: > 100 µM (inactive)
- GI50 [3]: > 100 µM
- GI50 [4]: > 100 µM (inactive)
- GI50 [5]: > 100 µM (inactive)
- GI50 [6]: > 100 µM (inactive)
- GI50 [7]: > 100 µM (inactive)
- GI50 [8]: > 100 µM (inactive)
- GI50 [9]: > 100 µM (inactive)
- GI50 [10]: 16.8 µM (inactive)
- GI50 [11]: 14.3 µM (inactive)
- GI50 [12]: 16.4 µM (inactive)
- GI50 [13]: > 100 µM (inactive)
- GI50 [14]: > 100 µM (inactive)
- GI50 [15]: > 100 µM (inactive)
- GI50 [16]: > 100 µM (inactive)
- GI50 [17]: > 100 µM (inactive)
- GI50 [18]: > 100 µM (inactive)
- GI50 [19]: > 100 µM (inactive)
- GI50 [20]: > 100 µM (inactive)
- GI50 [21]: > 100 µM (inactive)
- GI50 [22]: > 100 µM (inactive)
- GI50 [23]: > 100 µM (inactive)
- GI50 [24]: > 100 µM (inactive)
- GI50 [25]: > 100 µM (inactive)
- GI50 [26]: > 100 µM (inactive)
- GI50 [27]: > 100 µM (inactive)
- GI50 [28]: > 100 µM (inactive)
- GI50 [29]: > 100 µM (inactive)
- GI50 [30]: > 100 µM (inactive)
- GI50 [31]: > 100 µM (inactive)
- GI50 [32]: > 100 µM (inactive)
- GI50 [33]: > 100 µM (inactive)
- GI50 [34]: > 100 µM (inactive)
- GI50 [35]: > 100 µM (inactive)
- GI50 [36]: > 100 µM (inactive)
- GI50 [37]: > 100 µM (inactive)
- GI50 [38]: > 100 µM (inactive)
- GI50 [39]: > 100 µM (inactive)
- GI50 [40]: > 100 µM (inactive)
- GI50 [41]: > 100 µM (inactive)
- GI50 [42]: > 100 µM (inactive)
- GI50 [43]: > 100 µM (inactive)
- GI50 [44]: > 100 µM (inactive)
- GI50 [45]: > 100 µM (inactive)
- GI50 [46]: > 100 µM (inactive)
- GI50 [47]: > 100 µM (inactive)
- GI50 [48]: > 100 µM (inactive)
- GI50 [49]: > 100 µM (inactive)
- GI50 [50]: > 100 µM (inactive)

SMILES: COC(=O)/C(=C\C(=O)c1ccc(Br)cc1)NN=C(c1ccccc1)c1ccccc1
- GI50 [2]: > 10 µM (inactive)
- GI50 [3]: > 10 µM
- GI50 [4]: > 10 µM (inactive)
- GI50 [5]: > 10 µM (inactive)
- GI50 [6]: > 10 µM (inactive)
- GI50 [7]: > 10 µM (inactive)
- GI50 [51]: > 10 µM (inactive)
- GI50 [8]: > 10 µM (inactive)
- GI50 [10]: > 10 µM (inactive)
- GI50 [11]: > 10 µM (inactive)
- GI50 [13]: > 10 µM (inactive)
- GI50 [14]: > 10 µM (inactive)
- GI50 [15]: > 10 µM (inactive)
- GI50 [16]: > 10 µM (inactive)
- GI50 [17]: > 10 µM (inactive)
- GI50 [19]: > 10 µM (inactive)
- GI50 [52]: > 10 µM (inactive)
- GI50 [20]: > 10 µM (inactive)
- GI50 [53]: > 10 µM (inactive)
- GI50 [22]: > 10 µM (inactive)
- GI50 [54]: > 10 µM (inactive)
- GI50 [23]: > 10 µM (inactive)
- GI50 [24]: > 10 µM (inactive)
- GI50 [25]: > 10 µM (inactive)
- GI50 [29]: > 10 µM (inactive)
- GI50 [31]: > 10 µM (inactive)
- GI50 [32]: > 10 µM (inactive)
- GI50 [33]: > 10 µM (inactive)
- GI50 [34]: > 10 µM (inactive)
- GI50 [55]: > 10 µM (inactive)
- GI50 [35]: > 10 µM (inactive)
- GI50 [56]: > 10 µM (inactive)
- GI50 [36]: > 10 µM (inactive)
- GI50 [37]: > 10 µM (inactive)
- GI50 [38]: > 10 µM (inactive)
- GI50 [39]: > 10 µM (inactive)
- GI50 [41]: > 10 µM (inactive)
- GI50 [42]: > 10 µM (inactive)
- GI50 [57]: > 10 µM (inactive)
- GI50 [47]: > 10 µM (inactive)
- GI50 [48]: > 10 µM (inactive)
- GI50 [49]: > 10 µM (inactive)
- GI50 [50]: > 10 µM (inactive)

SMILES: O=C1c2c(O)cccc2Cc2cccc(O)c21 [ANTHRALIN]
- GI50 [2]: 0.348 µM (active)
- GI50 [4]: 0.321 µM (active)
- GI50 [6]: 0.355 µM (active)
- GI50 [7]: 0.783 µM (active)
- GI50 [9]: 0.334 µM (active)
- GI50 [10]: 0.255 µM (active)
- GI50 [11]: 0.415 µM (active)
- GI50 [12]: 1.22 µM (inactive)
- GI50 [13]: 0.351 µM (active)
- GI50 [14]: 0.264 µM (active)
- GI50 [15]: 0.322 µM (active)
- GI50 [16]: 0.269 µM (active)
- GI50 [17]: 0.327 µM (active)
- GI50 [18]: 0.382 µM (active)
- GI50 [19]: 0.178 µM (active)
- GI50 [52]: 0.259 µM (active)
- GI50 [20]: 0.334 µM (active)
- GI50 [23]: 0.684 µM (active)
- GI50 [24]: 0.321 µM (active)
- GI50 [27]: 0.319 µM (active)
- GI50 [28]: 0.273 µM (active)
- GI50 [29]: 0.32 µM (active)
- GI50 [30]: 0.313 µM (active)
- GI50 [32]: 0.2 µM (active)
- GI50 [33]: 0.447 µM (active)
- GI50 [34]: 0.256 µM (active)
- GI50 [35]: 0.31 µM (active)
- GI50 [56]: 0.321 µM (active)
- GI50 [36]: 0.216 µM (active)
- GI50 [37]: 0.347 µM (active)
- GI50 [38]: 0.376 µM (active)
- GI50 [40]: 0.57 µM (active)
- GI50 [58]: 0.29 µM (active)
- GI50 [41]: 0.386 µM (active)
- GI50 [43]: 0.435 µM (active)
- GI50 [44]: 0.314 µM (active)
- GI50 [45]: 0.3 µM (active)
- GI50 [49]: 0.337 µM (active)
- GI50 [50]: 0.375 µM (active)

SMILES: NS(=O)(=O)c1ccc(/C=C/c2ccc(O)cc2)cc1
- GI50 [1]: 14 µM (inactive)
- GI50 [7]: 27.5 µM (inactive)
- GI50 [51]: 10.7 µM (inactive)
- GI50 [8]: 18.8 µM (inactive)
- GI50 [9]: 18.7 µM (inactive)
- GI50 [10]: 17.5 µM (inactive)
- GI50 [12]: 41.5 µM (inactive)
- GI50 [13]: 23.9 µM (inactive)
- GI50 [14]: 16.2 µM (inactive)
- GI50 [16]: 21.3 µM (inactive)
- GI50 [18]: 19 µM (inactive)
- GI50 [19]: 11.4 µM (inactive)
- GI50 [21]: 23 µM (inactive)
- GI50 [22]: 21.1 µM (inactive)
- GI50 [54]: 15.6 µM (inactive)
- GI50 [23]: 43.8 µM (inactive)
- GI50 [25]: 26.9 µM (inactive)
- GI50 [29]: 51.6 µM (inactive)
- GI50 [32]: 22.7 µM (inactive)
- GI50 [34]: 24.4 µM (inactive)
- GI50 [56]: 33 µM (inactive)
- GI50 [36]: 30.4 µM (inactive)
- GI50 [37]: 31.5 µM (inactive)
- GI50 [39]: 14.8 µM (inactive)
- GI50 [40]: 40.6 µM (inactive)
- GI50 [41]: 10.7 µM (inactive)
- GI50 [42]: 19.7 µM (inactive)
- GI50 [57]: 18.9 µM (inactive)
- GI50 [43]: 44.4 µM (inactive)
- GI50 [45]: 8.73 µM (inactive)
- GI50 [46]: 25.9 µM (inactive)
- GI50 [47]: 25.6 µM (inactive)
- GI50 [48]: 19.9 µM (inactive)
